According to the Deep4Chem optical property database:
Blank lines part the entries; values can stand above or below the compound they belong to.

Assay: solvent given as SMILES

SMILES: CC1(C)c2ccccc2N(c2ccc(-c3ccc4c(c3)C(=O)c3ccc(-c5ccc(N6c7ccccc7C(C)(C)c7ccccc76)cc5)cc3C4=O)cc2)c2ccccc21
absorption maximum (in Cc1ccccc1): 446 nm

absorption maximum (in ClC(Cl)Cl): 422 nm
SMILES: CCCN1c2ccccc2Sc2cc(/C=C\c3cc(=O)oc4cc(NC(=O)OCC)ccc34)ccc21

absorption maximum (in C1CCOC1): 411 nm
absorption maximum (in CC#N): 412 nm
absorption maximum (in CCO): 410 nm
absorption maximum (in CS(C)=O): 410 nm
absorption maximum (in ClCCl): 413 nm
SMILES: c1ccc2c(c1)c1ccccc1c1[nH]c(-c3ccc(-c4nc5c6ccccc6c6ccccc6c5[nH]4)cc3)nc21

absorption maximum (in ClCCl): 400 nm
SMILES: Fc1ccc(-c2c3ccccc3nc3cc4ccccc4cc23)cc1

absorption maximum (in C1CCCCC1): 360 nm
absorption maximum (in CC#N): 358 nm
absorption maximum (in CO): 359 nm
absorption maximum (in ClC(Cl)Cl): 361 nm
SMILES: CC1(C)CC(/N=C/c2ccc3ccc4cccc5ccc2c3c45)CC(C)(C)N1

absorption maximum (in C1COCCO1): 336 nm
absorption maximum (in CC#N): 336 nm
absorption maximum (in CO): 340 nm
absorption maximum (in ClCCl): 343 nm
SMILES: COC(=O)CNC(=O)c1nc2c(N(C)C)nc(N(C)C)nc2n1Cc1ccccc1

SMILES: COc1cc2c3c4c(c5ccc(C(C)(C)C)cc5c5cc(C(C)(C)C)cc(c2c(OC)c1OC)c45)=[N+]1C3=Nc2c3c4cc(OC)c(OC)c(OC)c4c4cc(C(C)(C)C)cc5c6cc(C(C)(C)C)ccc6c(c3c54)n2[B-]1(F)F
absorption maximum (in Cc1ccccc1): 826 nm

SMILES: CC(C)[Si]1(C(C)C)c2ccccc2-c2ccc(N(C)C)cc21
absorption maximum (in C1CCCCC1): 323 nm
absorption maximum (in CC#N): 321 nm
absorption maximum (in CCO): 319 nm
absorption maximum (in CCOCC): 318 nm
absorption maximum (in CS(C)=O): 324 nm
absorption maximum (in ClCCl): 323 nm
absorption maximum (in c1ccccc1): 323 nm

absorption maximum (in ClCCl): 468 nm
SMILES: CCCCCCn1c2cc(C=O)sc2c2sc3c(sc4c5sc(C=O)cc5n(CCCCCC)c43)c21

absorption maximum (in ClC(Cl)Cl): 645 nm
SMILES: CCCCCCCCN1C(=O)c2ccc3c4c(-c5ccc(N(c6ccccc6)c6ccccc6)cc5)cc5c6c(ccc(c7c(-c8ccc(N(c9ccccc9)c9ccccc9)cc8)cc(c2c37)C1=O)c64)C(=O)N(CCCCCCCC)C5=O

SMILES: O=C1c2ccccc2C(=O)c2cc(-c3ccc(N(c4ccccc4)c4ccccc4)cc3)ccc21
absorption maximum (in C1CCOC1): 447 nm
absorption maximum (in CCCCCC): 442 nm
absorption maximum (in CCOC(C)=O): 446 nm
absorption maximum (in CCOCC): 443 nm
absorption maximum (in Cc1ccccc1): 454 nm
absorption maximum (in ClC(Cl)(Cl)Cl): 457 nm
absorption maximum (in ClCCl): 459 nm

SMILES: CC1(C)c2ccccc2N(c2ccc3c(c2)c(=O)c2cccc4c(=O)c5cc(N6c7ccccc7C(C)(C)c7ccccc76)ccc5n3c24)c2ccccc21
absorption maximum (in Cc1ccccc1): 432.96 nm

absorption maximum (in ClC(Cl)Cl): 480 nm
SMILES: N#CC1=CC(c2ccccc2)=CC(C#N)=P1(c1ccccc1)c1ccccc1

absorption maximum (in O): 500 nm
SMILES: CN(C)c1ccc2cc3ccc(N(C)C)cc3nc2c1

SMILES: OC1(c2ccc(-c3cccs3)s2)CCC(c2ccccc2)CC1 (configuration not stated)
absorption maximum (in C1CCOC1): 313 nm
absorption maximum (in CC#N): 309 nm
absorption maximum (in CCCCCC): 307 nm
absorption maximum (in CCO): 309 nm
absorption maximum (in OCCOCCO): 311 nm
absorption maximum (in c1ccncc1): 314 nm

absorption maximum (in ClCCl): 500 nm
SMILES: COc1ccc(C2=C(c3ccc(OC)cc3)c3cccc4c3c(cc3nc5ccccc5nc34)O2)cc1

SMILES: c1ccc2c(c1)ccc1ccccc12
absorption maximum (in Cc1ccccc1): 295 nm

absorption maximum (in ClC(Cl)Cl): 410 nm
SMILES: Cc1ccccc1C1CC(=O)Oc2c1c1nc3ccccc3nc1c1ccccc21 (configuration not stated)

absorption maximum (in C1CCOC1): 408 nm
absorption maximum (in CCCCCC): 403 nm
absorption maximum (in ClC(Cl)Cl): 405 nm
absorption maximum (in ClCCl): 419 nm
SMILES: O=C1c2cccc3c(-n4c5ccccc5c5ccccc54)ccc(c23)C(=O)N1c1ccccc1

SMILES: CCC1(CC)c2cc(/C=C/c3ccc(/C=C/c4ccc5c(c4)C(CC)(CC)c4cc(N6c7ccccc7Sc7ccccc76)ccc4-5)cc3)ccc2-c2ccc(N3c4ccccc4Sc4ccccc43)cc21
absorption maximum (in C1CCOC1): 444.73 nm
absorption maximum (in CC#N): 441.5 nm
absorption maximum (in CCCCCC): 440.65 nm
absorption maximum (in Cc1ccccc1): 446.43 nm
absorption maximum (in ClCCl): 418 nm

SMILES: CCCCOC(=O)c1cc(Oc2ccc(OC)cc2)c2c3c(Cl)cc4c5c(cc(Cl)c(c6c(Oc7ccc(OC)cc7)cc(C(=O)OCCCC)c1c26)c53)C(=O)N(c1c(C(C)C)cccc1C(C)C)C4=O
absorption maximum (in Cc1ccccc1): 531 nm

absorption maximum (in ClC(Cl)Cl): 450 nm
SMILES: O=Cc1ccc(C#CC(C#Cc2ccc(C=O)o2)=Cc2ccc(C=C(C#Cc3ccc(C=O)o3)C#Cc3ccc(C=O)o3)cc2)o1

SMILES: CCCCOC(=O)c1cc(Oc2ccc(C(C)(C)C)cc2)c2c3c(Cl)cc4c5c(cc(Cl)c(c6c(Oc7ccc(C(C)(C)C)cc7)cc(C(=O)OCCCC)c1c26)c53)C(=O)N(c1c(C(C)C)cccc1C(C)C)C4=O
absorption maximum (in Cc1ccccc1): 529 nm

SMILES: CCCCCCCCCCCCn1cccc1/C=C/c1ccc(OCCCC)c2c(/C=C/c3cccn3CCCCCCCCCCCC)ccc(OCCCC)c12
absorption maximum (in Cc1ccccc1): 375 nm

absorption maximum (in C1COCCO1): 402 nm
absorption maximum (in CC#N): 401 nm
absorption maximum (in CCCCOCCCC): 402 nm
absorption maximum (in CCOC(C)=O): 402 nm
SMILES: c1ccc(Nc2nc(Nc3ccccc3)nc(Nc3ccc4cc5ccccc5cc4c3)n2)cc1

absorption maximum (in C1CCOC1): 429 nm
SMILES: CC(C)(C)c1ccc(C2=C(c3ccc(-n4c5ccc(C(C)(C)C)cc5c5cc(C(C)(C)C)ccc54)cc3)S(=O)(=O)c3c2sc(-c2ccc(-n4c5ccc(C(C)(C)C)cc5c5cc(C(C)(C)C)ccc54)cc2)c3-c2ccc(C(C)(C)C)cc2)cc1

absorption maximum (in CS(C)=O): 516 nm
SMILES: CCCCN1/C(=C/C=C/C2=[N+](C)c3ccccc3C2(C)C)Oc2ccccc21

absorption maximum (in CCO): 413 nm
SMILES: CN(C)c1ccc(-c2ccc(C#N)s2)s1

absorption maximum (in C1CCOC1): 432 nm
SMILES: CCCCCCCCCCCCOc1cc(C(=O)Nc2ccc(-c3ccc4c(c3)C(=O)c3ccccc3-4)cc2)cc(OCCCCCCCCCCCC)c1OCCCCCCCCCCCC

SMILES: c1ccc2c(c1)Oc1ccccc1N2c1ccc2c(c1)c1ccccc1n1c3ccccc3nc21
absorption maximum (in Cc1ccccc1): 376 nm

absorption maximum (in C1CCOC1): 811 nm
absorption maximum (in ClCCl): 826 nm
SMILES: CCCCCCCc1ccc(C2=[N+]3C(=C4c5cc(OCC(CC)CC)c(-c6ccc(CCCCCCC)o6)n5[B-](F)(F)[n+]5nnn(c54)[B-]3(F)F)C=C2OCC(CC)CC)o1

absorption maximum (in CC#N): 388 nm
SMILES: Cc1ccc(C)c2nc3c(=O)[nH]c(=O)[nH]c3nc12

absorption maximum (in C1CCOC1): 359 nm
absorption maximum (in C1COCCO1): 359 nm
absorption maximum (in CC#N): 358 nm
absorption maximum (in CC(C)O): 357 nm
absorption maximum (in CCO): 357 nm
absorption maximum (in CCOC(C)=O): 357 nm
absorption maximum (in CN(C)C=O): 361 nm
absorption maximum (in CO): 357 nm
absorption maximum (in CS(C)=O): 364 nm
absorption maximum (in O): 359 nm
SMILES: NS(=O)(=O)c1ccc(N2N=C(c3ccc(O)cc3)CC2c2ccccc2)cc1 (configuration not stated)

SMILES: CN(C)c1ccc(C(=O)Nc2ccccc2)cc1
absorption maximum (in C1CCCCC1): 307 nm
absorption maximum (in C1CCOC1): 311 nm
absorption maximum (in CC#N): 314 nm
absorption maximum (in CCOCC): 307 nm

absorption maximum (in ClCCl): 539 nm
SMILES: COc1ccc(-c2c3cc4cc(C)sc4cc3c(C#Cc3ccccc3)c3cc4cc(C)sc4cc23)cc1

SMILES: CCCCCCc1ccc(-n2c3[n+](c4c5ccccc5c5ccccc5c42)[B-](C)(C)c2ccc4ccccc4c2-3)cc1
absorption maximum (in C1CCOC1): 392 nm
absorption maximum (in CC#N): 385 nm
absorption maximum (in Cc1ccccc1): 393 nm
absorption maximum (in ClCCl): 390 nm

SMILES: C(=C\c1cccc2ccccc12)/c1ccc(-c2nnc(-c3ccc(-c4cc5ccccc5s4)cc3)o2)cc1
absorption maximum (in CC#N): 349 nm
absorption maximum (in CC(C)=O): 350 nm
absorption maximum (in CCCCCCCC): 354 nm
absorption maximum (in CCCCCCCCCCO): 360 nm
absorption maximum (in CCCCCCCCO): 359 nm
absorption maximum (in CCCCCO): 356 nm
absorption maximum (in CCCO): 342 nm
absorption maximum (in CN(C)C=O): 357 nm
absorption maximum (in CO): 351 nm
absorption maximum (in CS(C)=O): 360 nm

absorption maximum (in C1CCCCC1): 347 nm
SMILES: C[Si](C)(C)C#Cc1ccc(C#C[Si](C)(C)C)c2ccccc12

absorption maximum (in ClCCl): 331 nm
SMILES: CC(C)(C)NC(=O)c1ccc(-c2ccc(N3c4ccccc4Oc4ccccc43)cc2)c2ccc3c4ccc(F)cc4c4cc(F)ccc4c3c12

absorption maximum (in ClC(Cl)Cl): 581 nm
SMILES: CC(C)(C)c1ccc(Oc2cc3c4c(cc(Oc5ccc(C(C)(C)C)cc5)c5c6c(Oc7ccc(C(C)(C)C)cc7)cc7c8c(cc(Oc9ccc(C(C)(C)C)cc9)c(c2c45)c86)C(=O)N(Cc2ccccc2)C7=O)C(=O)N(Cc2ccccc2)C3=O)cc1

SMILES: CC1=CC(C)=[N+]2C1=C(c1ccc(-c3ccc(OS(=O)(=O)c4ccc([N+](=O)[O-])cc4[N+](=O)[O-])cc3)s1)c1c(C)cc(C)n1[B-]2(F)F
absorption maximum (in CO): 512 nm
absorption maximum (in Cc1ccccc1): 518 nm
absorption maximum (in ClCCl): 515 nm

SMILES: O=C(/C=C/c1cn(-c2ccccc2)nc1-c1ccccc1)c1c(O)c2ccccc2oc1=O
absorption maximum (in C1CCOC1): 406 nm
absorption maximum (in C1COCCO1): 405 nm
absorption maximum (in CCO): 400 nm
absorption maximum (in CCOC(C)=O): 402 nm
absorption maximum (in CN(C)C=O): 381 nm
absorption maximum (in CO): 352 nm
absorption maximum (in CS(C)=O): 401 nm
absorption maximum (in Cc1ccccc1): 409 nm
absorption maximum (in ClC(Cl)Cl): 405 nm
absorption maximum (in ClCCl): 404 nm

absorption maximum (in CO): 753 nm
absorption maximum (in O): 748 nm
SMILES: CC1(C)C(/C=C/C=C/C=C/C=C2/N(CCCCCC(=O)O)c3ccc(S(=O)(=O)[O-])cc3C2(C)C)=[N+](CCCCCC(=O)O)c2ccc(S(=O)(=O)[O-])cc21

absorption maximum (in CC#N): 365 nm
SMILES: COc1ccc(-c2nc(-c3ccc(-c4nc(-c5ccc(OC)cc5)c(-c5ccc(OC)cc5)[nH]4)s3)[nH]c2-c2ccc(OC)cc2)cc1

absorption maximum (in CO): 291 nm
absorption maximum (in O): 290 nm
SMILES: CCOC(=O)CCOc1ccccc1C(c1c(C)[nH]c2ccccc12)c1c(C)[nH]c2ccccc12

SMILES: CN(C)c1ccc2[c](c1)[Sn]([CH3])([CH3])[C]1=CC(=[N+](C)C)C=CC1=C2
absorption maximum (in O): 614 nm

absorption maximum (in CCCCCC): 345 nm
absorption maximum (in CO): 343 nm
absorption maximum (in ClCCl): 346 nm
SMILES: CC(C)c1ccc2ccc3c(C(C)C)ccc4ccc1c2c43

absorption maximum (in C1CCCCC1): 350 nm
SMILES: CCCC1(CCC)c2ccccc2-c2ccc(-c3ccc4c(c3)C(CCC)(CCC)c3cc(-c5ccc6c(c5)C(CCC)(CCC)c5ccccc5-6)ccc3-4)cc21

absorption maximum (in C1CCCCC1): 582 nm
absorption maximum (in CCOC(C)=O): 577 nm
SMILES: CC1=[N+]2C(=C(Oc3ccccc3)c3ccc(C)n3[B-]2(F)F)C=C1c1cc2n(c1)[B-](F)(F)[N+]1=CC=CC1=C2c1c(C)cc(C)cc1C
